Source: article PMC9052211 (RSC Advances, 2020)

Tests used:
Type in all cases: cell-based
U937 neoplastic cells = assay: Cytotoxic activity by flow cytometry with 7-AAD staining, U937; conditions: Homo sapiens, U-937, 24 h, read-out: Cytotoxic activity IC50, U937
Jurkat neoplastic cells = assay: Cytotoxic activity by flow cytometry with 7-AAD staining, Jurkat; conditions: Homo sapiens, 24 h, read-out: Cytotoxic activity IC50, Jurkat
[1] = Cytotoxic activity by flow cytometry with 7-AAD staining, HEK293; conditions: human
K562 neoplastic cells = assay: Cytotoxic activity by flow cytometry with 7-AAD staining, K562; conditions: Homo sapiens, K562, 24 h, read-out: Cytotoxic activity IC50, K562

Structure (SMILES)	IC50 (U937 neoplastic cells)	IC50 (Jurkat neoplastic cells)	IC50 at 24 h [1]	IC50 (K562 neoplastic cells)
Cc1n[nH]c(C)c1CSc1ccccc1 [Compound 4a, 3,5-Dimethyl-4-[(phenylsulfanyl)methyl]-1H-pyrazole]	2.94 ± 0.03 µM	2.47 ± 0.03 µM	3.8 ± 0.03 µM	2.89 ± 0.03 µM
Cc1n[nH]c(C)c1CSCc1ccccc1 [Compound 4b, 4-[(Benzylsulfanyl)methyl]-3,5-dimethyl-1H-pyrazole]	2.15 ± 0.06 µM	1.24 ± 0.05 µM	2.98 ± 0.06 µM	1.98 ± 0.06 µM
Cc1n[nH]c(C)c1CSC1CCCCC1 [Compound 4c, 4-[(Cyclohexylsulfanyl)methyl]-3,5-dimethyl-1H-pyrazole]	1.98 ± 0.07 µM	1.49 ± 0.06 µM	3.15 ± 0.05 µM	2.16 ± 0.06 µM
Cc1n[nH]c(C)c1CSc1ccc(O)cc1 [Compound 4d, 4-{[(3,5-Dimethyl-1H-pyrazol-4-yl)methyl]sulfanyl}-phenol]	2.27 ± 0.02 µM	1.89 ± 0.02 µM	3.34 ± 0.08 µM	2.34 ± 0.01 µM
